Values of other authors as cited in patent US7718201B2, “Method of inducing liver phase II enzymes” (Access Business Group International LLC, priority 2005, dated 2010).

Test system: quinone reductase in Hepa1c1c7 cells
Conditions: reference values; broccoli dependent on variety, form, extraction conditions

C[S+]([O-])CCCCN=C=S (stereo not shown) [sulforaphane]
Phase II enzyme induction activity (reported): 10^6 U/g
